Drawing on patent publication US20140221427A1, “ISOTOPOLOGUES OF POMALIDOMIDE” (CELGENE CORPORATION, priority 2011, published 2014), this text covers IC50 and EC50 for three molecules.

Where two headings read alike, the source gives them in different places.

In assay [1] the test system is TNFα. Kind of assay: Inhibition of TNFα in LPS-stimulated hPBMC (ELISA). It is filed as cell-based. To be noted: LPS-stimulated human PBMC, TNFα by ELISA; read-out: IC50s for TNFα. The protocol:
Human peripheral blood mononuclear cells (hPBMC) from normal donors are obtained by Ficoll Hypaque (Pharmacia, Piscataway, N.J., USA) density centrifugation. Cells are cultured in RPMI 1640 (Life Technologies, Grand Island, N.Y., USA) supplemented with 10% AB+human serum (Gemini Bio-products, Woodland, Calif., USA), 2 mM L-glutamine, 100 U/ml penicillin, and 100 μg/ml streptomycin (Life Technologies).
PBMC (2×10^5 cells) are plated in 96-well flat-bottom Costar tissue culture plates (Corning, N.Y., USA) in triplicate. Cells are stimulated with LPS (from Salmonella abortus equi, Sigma cat. no. L-1887, St. Louis, Mo., USA) at 1 ng/ml final in the absence or presence of compounds. Compounds provided herein are dissolved in DMSO (Sigma) and further dilutions are done in culture medium immediately before use. The final DMSO concentration in all assays can be about 0.25%. Compounds are added to cells 1 hour before LPS stimulation. Cells are then incubated for 18-20 hours at 37° C. in 5% CO2, and supernatants are then collected, diluted with culture medium and assayed for TNFα levels by ELISA (Endogen, Boston, Mass., USA). IC50s are calculated using non-linear regression, sigmoidal dose-response, constraining the top to 100% and bottom to 0%, allowing variable slope (GraphPad Prism v3.02).
Potencies of racemic, (R)-, and (S)-pomalidomide in inhibiting TNFα were measured using procedures substantially similar to those described in Section 5.4 above.

Assay [2] has as its system IL-2. Kind of assay: Production of IL-2 in anti-CD3-stimulated purified T cells (ELISA). To be noted: T cells from PBMC on anti-CD3 (OKT3) coated plates, IL-2 by ELISA, read-out: EC50s for IL-2. The format is cell-based, human. The protocol: PBMC are depleted of adherent monocytes by placing 1×10^8 PBMC in 10 ml complete medium (RPMI 1640 supplemented with 10% heat-inactivated fetal bovine serum, 2 mM L-glutamine, 100 U/ml penicillin, and 100 μg/ml streptomycin) per 10 cm tissue culture dish, in 37° C., 5% CO2 incubator for 30-60 minutes. The dish is rinsed with medium to remove all non-adherent PBMC. T cells are purified by negative selection using the following antibody (Pharmingen) and Dynabead (Dynal) mixture for every 1×10^8 non-adherent PBMC: 0.3 ml Sheep anti-mouse IgG beads, 15 μl anti-CD16, 15 μl anti-CD33, 15 μl anti-CD56, 0.23 ml anti-CD19 beads, 0.23 ml anti-HLA class II beads, and 56 μl anti-CD14 beads. The cells and bead/antibody mixture is rotated end-over-end for 30-60 minutes at 4° C. Purified T cells are removed from beads using a Dynal magnet. Typical yield is about 50% T cells, 87-95% CD3′ by flow cytometry.
Tissue culture 96-well flat-bottom plates are coated with anti-CD3 antibody OKT3 at 5 μg/ml in PBS, 100 μl per well, incubated at 37° C. for 3-6 hours, then washed four times with complete medium 100 μl/well just before T cells are added. Compounds are diluted to 20 times of final in a round bottom tissue culture 96-well plate. Final concentrations are about 10 μM to about 0.00064 μM. A 10 mM stock of compounds provided herein is diluted 1:50 in complete for the first 20× dilution of 200 μM in 2% DMSO and serially diluted 1:5 into 2% DMSO. Compound is added at 10 μl per 200 μl culture, to give a final DMSO concentration of 0.1%. Cultures are incubated at 37° C., 5% CO2 for 2-3 days, and supernatants analyzed for IL-2 by ELISA (R&D Systems). […]
In addition, potencies of racemic, (R)-, and (S)-pomalidomide in promoting the production of IL-2 were measured using procedures substantially similar to those described in Section 5.5 above.

Regarding `Nc1cccc2c1C(=O)N([C@@H]1CCC(=O)NC1=O)C2=O` [(R)-pomalidomide], the IC50 in assay [1] worked out at 93.3 nM. Further, the EC50 in assay [2] amounted to 57.2 nM.

As for `Nc1cccc2c1C(=O)N([C@H]1CCC(=O)NC1=O)C2=O` [(S)-pomalidomide], the IC50 in assay [1] amounted to 3.9 nM. Further, the EC50 in assay [2] is 12.4 nM.

For `Nc1cccc2c1C(=O)N(C1CCC(=O)NC1=O)C2=O` (racemic) [racemic pomalidomide, 4-amino-2-(2,6-dixopiperidin-3-yl)isoindoline-1,3-dione], the IC50 in assay [1] amounted to 13 nM. In assay [2] (Homo sapiens, T-cell), the EC50 is 10.3 nM.
